From BindingDB's records for doi:10.1016/j.bioorg.2016.11.003 (Linyi People's Hospital, 2017)

Biological target: T1, Forkhead box protein M1 [235-327] (Human, UniProt Q08050)
T1 construct: 235-327
T1 sequence (Q08050 whole entry): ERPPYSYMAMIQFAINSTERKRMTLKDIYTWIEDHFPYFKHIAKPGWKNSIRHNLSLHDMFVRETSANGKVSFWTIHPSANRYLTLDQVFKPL
Assay: Fluorescence-based Affinity Assay
Method: The fluorescence emission spectra of tryptophan residues were used to monitor the changes in local chemical environment of protein upon ligand binding [Zhu et al., Bioorg. Chem., 68:259-265; Tyler et al., Biochemistry, 49:951-957]. The protein concentration was kept at a constant. Changes in fluorescence were measured upon titration of tested compound to protein solution. Fluorescence was measured by a PE fluorescence spectrophotometer.

SMILES | Kd
Cc1cccc2c(/C=C/C(=O)O)cc(C(C)C)c(O)c12 [CID 53708511] | 56 µM
CCC[C@H]1C(=O)N[C@]2(C(=O)O[C@@H]2[C@H]2C=CCCC2)[C@@]1(C)O [CID 50943806] | 230 µM
COc1ccccc1C(=O)C(CCC(=O)O)c1ccccc1OC (stereo unspecified) [CID 2748371] | 26 µM
CC1=C(C(=O)OC(C)C)C(c2ccc([N+](=O)[O-])cc2)NC(=S)N1 (stereo unspecified) [CID 2748293] | 17 µM

The next lines start with the values.

Kd | SMILES
3.8 µM | N=c1sc(C(=O)c2cccs2)nn1-c1ccccc1 [CID 2753793]
120 µM | O=c1[nH]nc(-c2ccccc2)c(=S)n1-c1ccc(F)c(Cl)c1 [CID 2751638]
